Measurements from US9657360B2, “Detection of viral infection” (priority 2011, dated 2017).
Residues, ends and D or L forms follow the SMILES beside them. *: point of attachment. Cbz = O=C(OCc1ccccc1)*

Experiments:
[1] = system: Hendra virus; format: cell-based
[2] = system: HeLa cells

SMILES	Hendra virus replication (HeV titres) [1]	HeLa cell viability [2]
Cc1ccc(S(=O)(=O)/C=C/C#N)cc1 [Bay11-7082]	reduced (not significantly)	not adversely impacting HeLa cell viability
CC(C)C[C@@H](C=O)NC(=O)[C@H](CC(C)C)NC(=O)[C@H](CC(C)C)NC(=O)OCc1ccccc1 [MG-132] (Cbz-Leu-Leu-Leu-aldehyde)	significantly reduced	not adversely impacting HeLa cell viability
